# Measurements taken from patent publication US6627623B2, “Inducing cell apoptosis and treating cancer using 1-O-acetylbritannilactone or 1,6-O,O-diacetylbritannilactone” (priority 2001, dated 2003).
# Several values for one entry are separate records, joined by “and”; a condition that tells them apart may be missing. Equal entries are not always repeated.
# Assays:
# [1] = system: HL-60 cells; assay: TUNEL assay (APO-BRDU flow cytometry), late apoptosis; assay type: cell-based; details: 12 hours
# Description: In a TUNEL assay, the effect of OODABL on late apoptosis was examined. HL-60 cells lines were subjected to flow cytometry analysis using APO-BRDU. Apoptosis was detected by incorporation of Br-dUTP using a fluorescein labeled anti-BrdU monoclonal antibody after treatment with a vehicle control, 1 μM camptothecin or 20 μM OODABL for 12 hours.
# [2] = system: Bcl-2; assay: Bcl-2 phosphorylation by Western blot in MCF-7 cells; assay type: cell-based; details: MCF-7 breast cancer cells
# Description: (§1) Experiments were performed to determine the activity of two of the sesquiterpene compounds isolated from Inula britannica, OABL and OODABL, as cancer preventative agents. Using a Western blot technique, the ability of these compounds to phosphorylate Bcl-2 in cancer cells was examined. […] OODABL induced Bcl-2 phosphorylation at lower effective doses, 2.5 and 5 μM.
# [3] = system: microtubules (tubulin) in MCF-7 cells; assay: Microtubule indirect immunofluorescence in MCF-7 cells; assay type: cell-based; details: 12 hours
# Description: The effect of OODABL on microtubules was examined by indirect immunofluorescence of MCF-7 cells using an antibody to tubulin after 12 hours treatment with either a vehicle control, 10 μM paclitaxel (positive control), or 20 μM OODABL.
# [4] = system: Bcl-2; assay: Bcl-2 phosphorylation by Western blot in non-mutated BRK-4B-Bcl-2 cells; assay type: cell-based, rat; details: 12 hours
# Description: (§2) The level of Bcl-2 phosphorylation was then assessed in the non-mutated and mutated BRK-4B-Bcl-2 cells using a Western blot assay. Cells were initially treated for 12 hours with the test compound, OODABL (at concentrations of 10, 20, 30, 40, or 60 μM). Taxol was used as a positive control at a concentration of 5 μM. Cells were then lysed in ice cold radio-immune precipitation buffer with inhibitors. Equivalent amounts of proteins were electrophoresed by 12% dodecyl sulfate-polyacrylamide gel electrophoresis and transferred to nitrocellulose. Bcl-2 and phosphorylated Bcl-2 proteins were detected using a monoclonal Bcl-2 primary antibody and a secondary goat anti-mouse horseradish peroxidase conjugated antibody followed by enhanced chemiluminescence detection.
# [5] = system: Bcl-2 (phosphorylation sites mutated); assay: Bcl-2 phosphorylation by Western blot in mutated BRK-4B-Bcl-2 cells; assay type: cell-based; details: mutated rat kidney cells, 12 hours
# Description: as §2
# [6] = system: Bcl-2; assay: Bcl-2 phosphorylation in OVCAR ovarian cancer cells; assay type: cell-based
# Description: as §1
# (§3) In two ovarian cancer cell lines, OVCAR and PA-1, similar results were seen. In OVCAR cells, OODABL induced Bcl-2 phosphorylation at a dose of 5 μM, while OABL induced Bcl-2 phosphorylation at a dose of 10 μM. In PA-1 cells, OODABL induced Bcl-2 phosphorylation at a dose of 5 μM, while OABL induced Bcl-2 phosphorylation at a dose of 10 μM.
# [7] = system: Bcl-2; assay: Bcl-2 phosphorylation in PA-1 ovarian cancer cells; assay type: cell-based; details: PA-1 cells
# Description: as §1, §3
# [8] = system: Bcl-2; assay: Bcl-2 phosphorylation in a prostate cancer cell line; assay type: cell-based
# Description: as §1
# In a prostate cancer cell line, these compounds were also able to induce Bcl-2 phosphorylation. OODABL induced Bcl-2 phosphorylation at a dose of 5 μM while OABL induced Bcl-2 phosphorylation at a dose of 10 μM.
# [9] = system: PARP; assay: PARP cleavage (apoptosis indicator) by Western blot in PA-1 cells; assay type: cell-based; details: 24 hours
# Description: Using cleavage of PARP as an indicator of apoptosis, the compositions of the present invention were tested in PA-1 ovary cells. PARP is a 116 kD nuclear poly (ADP-ribose)polymerase that appears to be involved in DNA-repair, predominantly in response to environmental stress (Satoh, M. S. and T. Lindahl. 1992. Nature 356:356-358). PARP is important for cells to maintain their viability. Cleavage of PARP facilitates cellular disassembly and serves as a marker of cells undergoing apoptosis (Oliver, F. J. et al. 1998. J. Biol. Chem. 273:33533-33539). This protein can be cleaved by many ICE caspases to form a 85 kD protein in cells undergoing apoptosis. PA-1 cells were treated with OODABL for 24 hours. Cells were lysed and PARP cleavage was measured by Western Blot using a monoclonal antibody to PARP (Pharmingen, Inc., San Diego, Calif.). OABL induced PARP cleavage at doses of 10 and 20 μM, while OODABL induced PARP cleavage at a dose of 5 μM.
# [10] = system: PA-1 cells; assay: MTT cell viability assay, PA-1; assay type: cell-based
# Description: (§4) Cell viability was then assessed in a microculture tetrazolium/formazan assay (MTT; Scudiero, D. A. et al. 1988. Cancer Res. 48:4827-4833) using a variety of cell lines. Absorbance was measured at 550 nm and cell viability was expressed as the percentage of drug treated cells relative to that of controls. The IC50 was then defined as the concentration of drug that produced a 50% decrease in cell viability relative to controls. OODABL was first tested in a variety of cell lines. […] In NIH 3T3 (normal mouse fibroblasts) cells treated with various concentrations of OODABL (1, 10, 20 and 50 μM OODABL), cell viability was decreased in a dose-dependent manner with an IC50 of 50 μM.
# (§5) OABL was then tested in some of these same cell lines. In MCF-7 cells, OABL was tested at doses of 0.3 nm, 3 nm, 30 nm, 300 nm, 3 μM, and 30 μM.
# [11] = system: DU-145 cells; assay: MTT cell viability assay, DU-145; assay type: cell-based
# Description: as §4, §5
# [12] = system: breast cancer cell line T47D; assay: Cell cycle analysis by flow cytometry; assay type: cell-based; details: T47D cells, 20 μM, compared to control cells
# Description: The effect of OODABL on cell cycle was analyzed by flow cytometery using breast cancer cell lin T47D.
# [13] = system: MCF-7 cells; assay: MTT cell viability assay, MCF-7; assay type: cell-based
# Description: as §4, §5
# [14] = system: NIH 3T3 (normal mouse fibroblasts) cells; assay: MTT cell viability assay, NIH 3T3; assay type: cell-based
# Description: as §4
# [15] = system: PC-3 prostate cells; assay: Clonogenic assay, PC-3; assay type: cell-based; details: PC-3 cells, 15 days; read-out: IC50 clonogenic assay (colonies counted)
# Description: (§6) Cell cytotoxicity was also assessed by a clonogenic assay. MCF-7 breast cells were treated with various concentrations of OODABL (625 nm, 1.25, 2.5, 5 and 10 μM) for 15 days and cells were then stained with methylene blue and colonies counted. […] PC-3 prostate cells were treated with various concentrations of OODABL (20 and 200 nm, and 2 and 20 μM) for 15 days and cells were then stained with methylene blue and colonies counted. The IC50 was in the range of 200 nm OODABL. RKO cells were treated with various concentrations of OODABL (20 and 200 nm, and 2 and 20 μM) for 15 days and cells were then stained with methylene blue and colonies counted. The IC50 was in the range of 20 μM OODABL. Baby rat kidney cells were transformed with E1A and transfected with the Bcl-2 gene to form BRK-4B-Bcl-2 cells. These cells were treated with various concentrations of OODABL (20 and 200 nm, and 2, 10 and 20 μM) for 15 days and cells were then stained with methylene blue and colonies counted. The IC50 was in the range of 200 nM OODABL. Baby rat kidney cells were transformed with E1A and transfected with Bcl-2 gene in which phosphorylation sites were mutated to form phosphomutant BRK-4B-Bcl-2 cells. These cells were treated with various concentrations of OODABL (20 and 200 nm, and 2 and 20 μM) for 15 days and cells were then stained with methylene blue and colonies counted. […]
# [16] = system: RKO cells; assay: Clonogenic assay, RKO; assay type: cell-based; details: 15 days, read-out: IC50 clonogenic assay (colonies counted)
# Description: as §6
# [17] = system: BRK-4B-Bcl-2 cells; assay: Clonogenic assay, BRK-4B-Bcl-2; assay type: cell-based, rat; details: 15 days, read-out: IC50 clonogenic assay (colonies counted)
# Description: as §6
# [18] = system: phosphomutant BRK-4B-Bcl-2 cells; assay: Clonogenic assay, phosphomutant BRK-4B-Bcl-2; assay type: cell-based, rat; details: 15 days, read-out: IC50 clonogenic assay (colonies counted)
# Description: as §6
smiles,measurement,setting,value
"CC[C@@]1(O)C(=O)OCc2c1cc1n(c2=O)Cc2cc3ccccc3nc2-1 [camptothecin, reference compound]",late apoptosis (Br-dUTP incorporation),"[1]; 1 μM, positive control",induce apoptosis
"CC(=O)O[C@H]1C(=O)[C@@]2(C)[C@H]([C@H](OC(=O)c3ccccc3)[C@]3(O)C[C@H](OC(=O)[C@H](O)[C@@H](NC(=O)c4ccccc4)c4ccccc4)C(C)=C1C3(C)C)[C@]1(OC(C)=O)CO[C@@H]1C[C@@H]2O [paclitaxel, reference compound]",effective dose inducing Bcl-2 phosphorylation,[2],100 µM
same,effect on microtubules,"[3]; 10 μM, positive control",polymerized microtubules
same,level of Bcl-2 phosphorylation,"[4]; non-mutated cells, 5 μM, positive control",increased in protein phosphorylation
same,level of Bcl-2 phosphorylation,[5]; 5 μM,no phosphorylation evident
"C=C1C(=O)OC2CC(C)=C(C(C)CCCOC(C)=O)C(O)C12 (stereo not drawn) [OABL, 1-O-acetylbritannilactone]",effective dose inducing Bcl-2 phosphorylation,[2],10 µM and 20 µM
same,dose inducing Bcl-2 phosphorylation,[6],10 µM
same,dose inducing Bcl-2 phosphorylation,[7],10 µM
same,dose inducing Bcl-2 phosphorylation,[8],10 µM
same,dose inducing PARP cleavage,[9],10 µM and 20 µM
same,IC50,[10],~2000 nM
same,"cell viability (MTT), result in words","[11]; Du-145 cells, 4.68-100 μM",decreased cell viability
"C=C1C(=O)OC2CC(C)=C(C(C)CCCOC(C)=O)C(OC(C)=O)C12 (stereo not drawn) [OODABL, 1,6-O,O-diacetylbritannilactone]",effective dose inducing Bcl-2 phosphorylation,[2],2.5 µM and 5 µM
same,dose inducing Bcl-2 phosphorylation,[6],5 µM
same,dose inducing Bcl-2 phosphorylation,[7],5 µM
same,dose inducing Bcl-2 phosphorylation,[8],5 µM
same,dose inducing PARP cleavage,[9],5 µM
same,effect on cell cycle,[12],arrested cells at the G2/M phase
same,effect on microtubules,[3]; 20 μM,polymerized microtubules
same,late apoptosis (Br-dUTP incorporation),[1]; 20 μM,induce apoptosis
same,IC50,[13],< 12500 nM
same,IC50,[10],< 7820 nM
same,IC50,[11]; DU-145 cells,< 15600 nM
same,IC50,[14],50000 nM
same,IC50,[15],~200 nM
same,IC50,[16],~20000 nM
same,IC50,[17],~200 nM
same,IC50,[18],~2000 nM
same,level of Bcl-2 phosphorylation,"[4]; non-mutated cells, 10, 20, 30, 40, or 60 μM",dose-dependent increase in Bcl-2 phosphorylation
same,level of Bcl-2 phosphorylation,[5]; 10-60 μM,no phosphorylation evident
